# Paper PMC1976805, “Preclinical pharmacokinetics of benznidazole” (British Journal of Cancer, 1984)
# Like-named read-outs stand apart in the source and are kept apart here.
# Experiments:
# [1] = Whole plasma pharmacokinetics of benznidazole in mice (HPLC); assay type: in vivo, mouse; details: for i.p. bioavailability (from AUC0-∞): 65 mg kg-1 i.p.; for half-life / Tmax: mouse; for Tmax: read-out: time of peak plasma concentration (converted)
# Text: (§1) Br. J. Cancer (1984), 50, 291-303 Preclinical pharmacokinetics of benznidazole P. Workman', R.A.S. White2, M.I. Walton', L.N. Owen2* & P.R. Twentyman' 1MRC Clinical Oncology and Radiotherapeutics Unit, MRC Centre, Hills Road, Cambridge CB2 2QH, and 2Department of Clinical Veterinary Medicine, University of Cambridge, Madingley Road, Cambridge CB3 OES, UK. […] We have investigated the detailed pharmacokinetics of benznidazole in mice, dogs and sheep to provide a data base for the estimation of doses required for chemosensitization in man. Pharmacokinetic behaviour was linear except at high doses in mice. Absorption was fairly rapid and bioavailability was complete following both i.p. administration in mice and oral administration in dogs. Elimination t4 values were longer than for MISO, being 90 min in mice, 4-5 h in sheep and 9-11 h in dogs. At doses giving linear kinetics, peak whole plasma concentrations per administered mgkg-1 were 0.75 jigml-1 for the i.p. route in mice and 1.8jugmlP' for the oral route in dogs. Though between 39 and 59% of plasma benznidazole was bound to protein, tissue penetration was generally good. Tissue/whole plasma ratios ranged from 59-99% for transplantable mouse tumours and from 14-70% for spontaneous dog neoplasms. Nervous tissue penetration was similar to that in tumours: brain/whole plasma ratios averaged between 61 and 76% in mice and 42% in dogs, while peripheral nerve/whole plasma ratios in dogs averaged 74%. Mean liver/whole plasma ratios were 42% and 71% in BALB/c and C3H/He mouse strains respectively. Only -5% of the administered dose was excreted unchanged in the urine, indicating the likelihood of extensive metabolism. […] Enhancement of CCNU response is likely to require circulating benznidazole concentrations of 10-30 pgml-1 and we predict that these will be obtained with oral doses of 6-20 mgkg- 1 in man. […] This enhancement, or chemosensitization, is usually greater than that seen in dose-limiting normal tissues, resulting in an improved therapeutic index. Because of the relatively high doses of MISO usually required for chemosensitization in mice (see above refs), and also because of its neurotoxicity in man (Dische et al., 1977), we have been interested in finding an improved chemosensitizer. […] The lipophilic ana- logue benznidazole (N-benzyl-(2-nitroimidazolyl) acetamide, Ro 07-1051; Radanil; Roche), the structure of which is shown in Figure 1, was selected for detailed study because of its ability to *Present address: Animal Health Trust, Small Animals Centre, Lanwades Park, Kennett, Newmarket, Suffolk CB8 7PN, UK. Correspondence: P. Workman. […] These findings have been confirmed independently by Siemann et al. (1983). Although benznidazole is used quite widely in South America to treat patients with the trypanosomal infection Chagas' disease or with mucotaneous Leishmaniasis (Barclay et al., 1978; Cerisola et al., 1978; Coura et al., 1978; Fava et al., 1978), apart from our preliminary studies (White et al., 1982) the only published data on its pharmaco- kinetics are for human plasma concentrations measured by polarography (Raaflub & Ziegler, 1979; Raaflub, 1980). Here we describe the pharmacokinetics of benznidazole in the mouse, sheep and dog, as determined by high-performance liquid chromatography (HPLC). […] The Macmillan Press Ltd., 1984 292 P. WORKMAN et al. particularly on plasma and tumour concentrations, have been used as a basis for the estimation of the benznidazole doses required in a Phase I trial of benznidazole plus CCNU, at present ongoing in our Unit. Materials and methods Animals and tumours Adult inbred male BALB/c mice were obtained from OLAC (Southern) Ltd. (Bicester, UK) and adult inbred C3H/He mice of both sexes from OLAC and our own breeding colony. Mice were housed in plastic cages on sawdust bedding made from soft white woods, and allowed laboratory chow and water ad lib. They were used at 20-35 g body wt.
# plasma proteins = assay: In vivo plasma protein binding in dogs (plasma ultrafiltrate); details: dog; for fraction unbound: plasma
# Text: as §1
# [2] = Penetration into brain and peripheral nerve in dogs; assay type: in vivo, dog; details: 25 mg kg-1 oral; for Kp: collie crossbred, 25 mg kg-1, two crossbred dogs; for Kp / Kp at 4 h / Kp at 1 h / Kp at 2 h / Kp at 3 h: dog, po
# Text: as §1
# [3] = Maximum tolerated dose in mice; details: male, mouse, in vivo, ip; BALB/c mice, i.p., highest dose used; read-out: maximum tolerated dose (about)
# Text: Br. J. Cancer (1984), 50, 291-303 Preclinical pharmacokinetics of benznidazole P. Workman', R.A.S. White2, M.I. Walton', L.N. Owen2* & P.R. Twentyman' 1MRC Clinical Oncology and Radiotherapeutics Unit, MRC Centre, Hills Road, Cambridge CB2 2QH, and 2Department of Clinical Veterinary Medicine, University of Cambridge, Madingley Road, Cambridge CB3 OES, UK. […] We have investigated the detailed pharmacokinetics of benznidazole in mice, dogs and sheep to provide a data base for the estimation of doses required for chemosensitization in man. Pharmacokinetic behaviour was linear except at high doses in mice. Absorption was fairly rapid and bioavailability was complete following both i.p. administration in mice and oral administration in dogs. […] Although benznidazole is used quite widely in South America to treat patients with the trypanosomal infection Chagas' disease or with mucotaneous Leishmaniasis (Barclay et al., 1978; Cerisola et al., 1978; Coura et al., 1978; Fava et al., 1978), apart from our preliminary studies (White et al., 1982) the only published data on its pharmaco- kinetics are for human plasma concentrations measured by polarography (Raaflub & Ziegler, 1979; Raaflub, 1980). Here we describe the pharmacokinetics of benznidazole in the mouse, sheep and dog, as determined by high-performance liquid chromatography (HPLC). […]
smiles,measurement,setting,value
"O=C(Cn1ccnc1[N+](=O)[O-])NCc1ccccc1 [benznidazole, N-benzyl-(2-nitroimidazolyl) acetamide]",peak whole plasma concentration (+2 s.e.),"[1]; BALB/c mice, 26 mg kg-1 i.p.",18.0+3.7 µg ml-1
same,i.p. bioavailability (from AUC0-∞),"[1]; BALB/c mice, 50% polyethylene glycol/saline vehicle",87%
same,i.p. bioavailability (from AUC0-∞),"[1]; BALB/c mice, dimethyl sulphoxide vehicle",113%
same,peak whole plasma concentration (+2 s.e.),"[1]; BALB/c mice, 78 mg kg-1 i.p.",36.0+2.5 µg ml-1
same,peak whole plasma concentration (+2 s.e.),"[1]; BALB/c mice, 650 mg kg-1 i.p.",105+15 µg ml-1
same,"blood/whole plasma concentration ratio, overall mean (s.e., n=16)","[1]; BALB/c mice, 650 mg kg-1 i.p. in arachis oil, 45-135 min",116+4%
same,whole plasma concentration remaining at 24 h,"[1]; BALB/c mice, 650 mg kg-1 i.p., experiment of Figure 3",15 µg/mL
same,half-life,"[1]; male, plasma, ip, BALB/c mice, 26 mg kg-1 i.p., suspension in 50% polyethylene glycol, read-out: elimination half-life (95% confidence limits)",1.55 h
same,half-life,"[1]; male, plasma, ip, BALB/c mice, 68 mg kg-1 (so in the source) i.p., suspension in 50% polyethylene glycol, read-out: elimination half-life (95% confidence limits)",1.6 h
same,Tmax,"[1]; male, plasma, ip, BALB/c mice, 650 mg kg-1 i.p.",1 h
same,Tmax,"[1]; male, plasma, ip, BALB/c mice, 26 and 78 mg kg-1 i.p.",0.25 to 0.5 h
same,half-life,"[1]; male, plasma, iv, BALB/c mice, 32.5 mg kg-1 i.v. in dimethyl sulphoxide, read-out: elimination half-life (95% confidence limits)",1.98 h
same,half-life,"[1]; male, plasma, iv, BALB/c mice, 65 mg kg-1 i.v. in dimethyl sulphoxide, read-out: elimination half-life (95% confidence limits)",1.95 h
same,peak whole plasma concentration that would be produced,"[1]; mice, 13 mg kg-1 i.p.",about 10 µg ml-1
same,"whole plasma concentration (dose-peak concentration curve, Figure 4)","[1]; mice, 26 mg kg-1 i.p.",20 µg/mL
same,whole plasma concentration,"[1]; mice, 78 mg kg-1 i.p., discussion summary",30 µg/mL
same,"whole plasma concentration (dose-peak concentration curve, Figure 4)","[1]; mice, 650 mg kg-1 i.p.",90 µg/mL
same,whole plasma concentration remaining at 24 h,"[1]; mice, 650 mg kg-1 i.p., some other experiments (undetectable)",< 0.2 µg/mL
same,peak whole plasma concentration per administered mg kg-1,"[1]; mice, i.p. route, doses giving linear kinetics",0.75 micrograms ml-1
same,half-life,"[1]; plasma, mice, summary value, read-out: elimination t1/2",1.5 h
same,metabolites detectable by HPLC with u.v. detection at 313 nm,"[1]; plasma, urine and tissues of all species studied",no evidence of metabolites
same,fraction unbound,"plasma proteins; beagle, po, 50 mg kg-1, dog E, 50 mg kg-1 oral, full time course, read-out: protein binding (mean+s.e., n=8) (converted)",0.45
same,fraction unbound,"plasma proteins; beagle, po, 50 mg kg-1, dog F, 50 mg kg-1 oral, full time course, read-out: protein binding (mean+s.e., n=8) (converted)",0.48
same,fraction unbound,"plasma proteins; collie crossbred, beagle, iv, dogs, apart from the two i.v. time courses, read-out: in vivo protein binding, range",0.41 to 0.48
same,fraction unbound,"plasma proteins; collie crossbred, iv, 5 mg kg-1, dog C, 5 mg kg-1 i.v., full time course, read-out: protein binding (mean+s.e., n=8) (converted)",0.28
same,fraction unbound,"plasma proteins; collie crossbred, iv, 5 mg kg-1, dog D, 5 mg kg-1 i.v., full time course, read-out: protein binding (mean+s.e., n=8) (converted)",0.26
same,fraction unbound,"plasma proteins; collie crossbred, po, 25 mg kg-1, dog A, 25 mg kg-1 oral, mean of 4 and 5 h values, read-out: protein binding (converted)",0.47
same,fraction unbound,"plasma proteins; collie crossbred, po, 25 mg kg-1, dog B, 25 mg kg-1 oral, mean of 4 and 5 h values, read-out: protein binding (converted)",0.41
same,fraction unbound,"plasma proteins; collie crossbred, po, 25 mg kg-1, dog C, 25 mg kg-1 oral, mean of 4 and 5 h values, read-out: protein binding (converted)",0.45
same,fraction unbound,"plasma proteins; collie crossbred, po, 25 mg kg-1, dog D, 25 mg kg-1 oral, mean of 4 and 5 h values, read-out: protein binding (converted)",0.47
same,binding to plasma proteins,plasma proteins; discussion summary,59%
same,Kp,"[2]; brain, 1-4 h, read-out: brain/whole plasma ratio, overall mean (s.e., n=8)",0.42
same,Kp,"[2]; peripheral nerve, 1-4 h, read-out: peripheral nerve/whole plasma ratio, mean (s.e., n=7)",0.74
same,brain concentration,"[2]; dog G, 1 h",1.1 µg/g
same,peripheral nerve concentration,"[2]; dog G, 1 h",1.3 µg/g
same,plasma concentration,"[2]; dog G, 1 h",3100 ng/mL
same,brain concentration,"[2]; dog G, 2 h",1.5 µg/g
same,peripheral nerve concentration,"[2]; dog G, 2 h",3.4 µg/g
same,plasma concentration,"[2]; dog G, 2 h",3800 ng/mL
same,brain concentration,"[2]; dog G, 3 h",2.1 µg/g
same,plasma concentration,"[2]; dog G, 3 h",4300 ng/mL
same,brain concentration,"[2]; dog G, 4 h",1.1 µg/g
same,peripheral nerve concentration,"[2]; dog G, 4 h",4.0 µg/g
same,plasma concentration,"[2]; dog G, 4 h",4100 ng/mL
same,brain concentration,"[2]; dog H, 1 h",11.6 µg/g
same,peripheral nerve concentration,"[2]; dog H, 1 h",14.0 µg/g
same,plasma concentration,"[2]; dog H, 1 h",23100 ng/mL
same,brain concentration,"[2]; dog H, 2 h",10.0 µg/g
same,peripheral nerve concentration,"[2]; dog H, 2 h",15.5 µg/g
same,plasma concentration,"[2]; dog H, 2 h",22200 ng/mL
same,brain concentration,"[2]; dog H, 3 h",8.5 µg/g
same,peripheral nerve concentration,"[2]; dog H, 3 h",14.7 µg/g
same,plasma concentration,"[2]; dog H, 3 h",18700 ng/mL
same,brain concentration,"[2]; dog H, 4 h",7.9 µg/g
same,peripheral nerve concentration,"[2]; dog H, 4 h",15.6 µg/g
same,plasma concentration,"[2]; dog H, 4 h",18500 ng/mL
same,Kp at 4 h,"[2]; brain, 25 mg kg-1, dog H, 4 h, read-out: brain/plasma ratio",0.43
same,Kp at 1 h,"[2]; brain/plasma, 25 mg kg-1, dog G, 1 h, read-out: brain/plasma ratio",0.35
same,Kp at 2 h,"[2]; brain/plasma, 25 mg kg-1, dog G, 2 h, read-out: brain/plasma ratio",0.39
same,Kp at 3 h,"[2]; brain/plasma, 25 mg kg-1, dog G, 3 h, read-out: brain/plasma ratio",0.49
same,Kp at 4 h,"[2]; brain/plasma, 25 mg kg-1, dog G, 4 h, read-out: brain/plasma ratio",0.26
same,Kp at 1 h,"[2]; brain/plasma, 25 mg kg-1, dog H, 1 h, read-out: brain/plasma ratio",0.5
same,Kp at 2 h,"[2]; brain/plasma, 25 mg kg-1, dog H, 2 h, read-out: brain/plasma ratio",0.45
same,Kp at 3 h,"[2]; brain/plasma, 25 mg kg-1, dog H, 3 h, read-out: brain/plasma ratio",0.45
same,Kp at 3 h,"[2]; peripheral nerve, 25 mg kg-1, dog H, 3 h, read-out: peripheral nerve/plasma ratio",0.78
same,Kp at 4 h,"[2]; peripheral nerve, 25 mg kg-1, dog H, 4 h, read-out: peripheral nerve/plasma ratio",0.84
same,Kp at 1 h,"[2]; peripheral nerve/plasma, 25 mg kg-1, dog G, 1 h, read-out: peripheral nerve/plasma ratio",0.41
same,Kp at 2 h,"[2]; peripheral nerve/plasma, 25 mg kg-1, dog G, 2 h, read-out: peripheral nerve/plasma ratio",0.9
same,Kp at 4 h,"[2]; peripheral nerve/plasma, 25 mg kg-1, dog G, 4 h, read-out: peripheral nerve/plasma ratio",0.96
same,Kp at 1 h,"[2]; peripheral nerve/plasma, 25 mg kg-1, dog H, 1 h, read-out: peripheral nerve/plasma ratio",0.6
same,Kp at 2 h,"[2]; peripheral nerve/plasma, 25 mg kg-1, dog H, 2 h, read-out: peripheral nerve/plasma ratio",0.7
same,"brain/whole plasma ratio, overall mean (s.e., n=8)","[2]; two crossbred dogs, 1-4 h",42+3%
same,"peripheral nerve/whole plasma ratio, mean (s.e., n=7)","[2]; two crossbred dogs, 1-4 h",74+7%
same,MTD,[3],~832 mg/kg
